Columns and labels:
[1] = test system: Fatigue-Symptomatik bei MS-Patienten; settings: described in the literature; cited from earlier work
[2] = test system: Lambert-Eaton-Myasthenie-Syndrom (LEMS); settings: cited from earlier work
[3] = test system: Fatigue-Symptomatik nach Covid-Infektion; assay: Off-label case reports (Fall 1-3) in fatigue after Covid infection; format: in vivo, Patienten
Text: (§1) In den nachfolgend genannten Anwendungsbeispielen wurde 3,4-Diaminopyridin Amifamprindin (Formulierung als Fertigarzneimittel) verabreicht. Im Rahmen der doppelt-blind Studie wurden gleich aussende Kapseln mit Amifampridin oder Placebo apothekenseitig verblindet zubereitet, wobei nur apothekenseitig bekannt war welche Kapseln Wirkstoff oder Placebo enthielten.
Ruhebedürfnis bis zu 20 Stunden pro Tag (brain fog) sowie ausgeprägter Konzentrationsschwäche.
Im Fall 2 wird eine Patientin beschrieben, die ebenfalls unter einer gravierenden Fatigue-Symptomatik nach Covid-Infektion 5/22 litt, eine zuzuordnende neurologische oder internistische Grunderkrankung bestand nicht. […] Die nachfolgenden Labor- und EKG-Kontrollen zur Erfassung substanzassoziierter Komplikationen waren unauffällig.
Im Fall 3 wird ein Patient beschrieben, der nach zweimaliger Covid-Infektion unter Fatigue-Symptomatik mit einem Schlafbedürfnis bis zu 2 x 9 Stunden pro Tag litt.

[4] = test system: Fatigue-Symptomatik bei Post-Covid-Syndrom; assay: Further study / case series Pat. 1-5: Bell-Score and sleep need in post-Covid syndrome; format: in vivo, Patienten
Text: (§2) Die Bell-score (oder skala) ist ein Massstab der Behinderung bei ME & CFS. Auch für Long Covid-Patient:innen ist sie geeignet. Die Bell-Skala ist individuell, da jeder Patientinnen eine unterschiedliche Belastungsintoleranz aufweist und das Erleiden von schweren Symptomen in Ruhe verhältnismässig unterschiedlich sein kann.
Es wurde eine weitere Studie an einer Patientengruppe durchgeführt.
Die Prävalenz eines Post-Covid-Syndroms (PCS) liegt bei 10-15 % nach SARS-COV-2-Infektion, neben spezifischen Organerkrankungen treten vielfältige funktionelle Beschwerden auf, vorrangig eine Fatigue-Symptomatik. Diese ist gekennzeichnet durch persistierende Müdigkeit, Schwäche, kognitive Defizite sowie vermehrtem Schlafbedürfnis. In dieser Studie bzw. Fallserie wird der Effekt von Amifampridin bei Patienten mit PCS beschrieben, die unter unphysiologisch gesteigertem Schlafbedürfnis sowie eingeschränkter Kognition litten. Zur Evaluation wurde der Bell-Score verwendet, der auf die Einschränkung der Vigilanz, körperlichen Belastbarkeit und Berufstätigkeit fokussiert.

[5] = test system: Fatigue-Symptomatik nach SARS-COV-2-Infektion; assay: Patients 2.1 to 2.5: Bell-Score and sleep need with Amifampridin (Fig. 1 and 2); format: in vivo, Patienten
Text: as §2
Die nachfolgenden Dosierungen der Patienten 2.1 bis 2.5 und die veränderten Bell-Sore Werte sowie das Schlafbedürfnis in Stunden sind in den Figuren 1 und 2 dargestellt (Fig. 1 Bells-Sore mit und ohne Amifampridin, Patienten 2.1 bis 2.5, Fig. 2: kumulierte Schlafzeit in 24 h).

[6] = test system: Fatigue-Symptomatik nach SARS-COV-2-Infektion; assay: Double-blind withdrawal trial, verum and placebo for 3 days each; format: in vivo, Patienten; settings: Pat. 2.1; on Amifampridin at start of verum phase (4 x 5 mg per day, days 1-3)
Method: as §1
Bei Pat. 2.1 und 2.2 waren zur Rekonvaleszenz eine Dauermedikation mit jeweils 20 mg Amifampridin pro Tag erforderlich und boten damit Voraussetzungen für einen doppelt-blinden Auslassversuch über jeweils 3 Tage.
Pat. 2.1 mit Verum an Tagen 1-3, nachfolgend Placebo an den Tagen 4-6: Pat. (Pat. 2.1) mit Bell-Score 90 begann bereits mit Amifampridin, wie vorstehend beschrieben, und setzte diese mit Blister mit 6 Tagesdosen je Tag ein Fach mit Kapseln für 3 Tage mit je 4 mal 5 mg Amifampridin fort. Die Dosierung betrugt jeweils für 3 Tage Placebo mit je 4mal Placebo-Kapseln für Patient 1 und 2 (Verum und Placebo).

[7] = Pat. 5 (LEMS), 3 or 4 x 5 mg as daily dose
[8] = Pat. 2.5 (LEMS), initial 3 x 5 mg

SMILES: Nc1ccncc1 [Fampridin]
- begleitende Fatigue-Symptomatik [1]: Besserung

SMILES: Nc1ccncc1N [Amifampridine Phosphate (Firdapse), Amifampridine Phosphate]
- koinzidente Fatigue ([2]; LEMS, 20 bis 80 mg als Tagesdosen, J Clin Neuromuscul Dis. 2019): Besserung einer koinzidenten Fatigue

SMILES: Nc1ccncc1N [Amifampridin, Pyridin-3,4-diamin]
- muskuläre Defizite ([3]; Fall 1): umgehende Besserung
- Fatigue-Symptomatik ([3]; Fall 1, since Covid infection, sleep/rest need up to 20 Stunden pro Tag before): schlagartige Besserung
- Labor- und EKG-Kontrollen zur Erfassung substanzassoziierter Komplikationen ([3]; Fall 2): unauffällig
- Fatigue-Symptomatik ([3]; Fall 2, 5 mg): komplette Besserung
- Konzentrationsfähigkeit ([3]; Fall 2, 5 mg): vollständiger Restitution
- zuzuordnende Nebenwirkung ([3]; Fall 2, 5 mg): leichte periorale Parästhesien
- Fatigue ([3]; Fall 2, Tagesdosis 3 x 5 mg): sistiert die vorbestehende Fatigue vollständig
- Konzentrationsfähigkeit ([3]; Fall 3, 5 mg): schlagartigen Besserung
- Nebenwirkung (periorale Parästhesien) ([3]; Fall 3, 5 mg): transiente periorale Parästhesien mit sehr geringer Intensität
- Schlaf- und Ruhebedürfnis ([3]; Fall 3, 5 mg): physiologischem
- Schlafbedürfnis ([4]; Pat. 1, after 3 intakes of 5 mg over 24 h, before 12): 7 Stunden / 24h
- Bell-Score ([4]; Pat. 1, after 3 intakes of 5 mg over 24 h, before 20 to 40): 100
- Vigilanz ([4]; Pat. 2, after 3 doses of 5 mg): uneingeschränkte Vigilanz
- Schlafbedürfnis ([4]; Pat. 2, after 3 doses of 5 mg, before 12): 7,5 Stunden /24 h
- Bell-Score ([4]; Pat. 2, after 3 doses of 5 mg, before 40): 100
- Schlafbedürfnis ([4]; Pat. 3, after one intake of 5 mg, before 11 to 12): 7-9 Stunden
- Bell-Score ([4]; Pat. 3, after one intake of 5 mg, before 40): 100
- duration of the effect ([4]; Pat. 3, one intake of 5 mg): ~36 Stunden
- Bell-Score ([4]; Pat. 4, 3 x 5 mg over 24 h, before 20, Post-Covid-Myokarditis): 50
- Fatigue [4, 7]: sistierte die Fatigue
- muskuläre Belastbarkeit [4, 7]: gebesserte muskuläre Belastbarkeit
- Schlafbedürfnis ([4]; Pat. 5 (LEMS), 3 or 4 x 5 mg as daily dose, before 16 to 18): 8-9 Stunden / 24h
- Fatigue-Symptomatik ([4]; patient group of the further study, Post-Covid-Syndrom): reduzierte Fatigue-Symptomatik
- Schlafbedürfnis ([5]; Pat. 2.1, after single intake of 5 mg, before 12): 7 Stunden / 24h
- Bell-Score ([5]; Pat. 2.1, after single intake of 5 mg, before 20 to 40): 100
- duration of the effect ([5]; Pat. 2.2, 5 mg): ~36 Stunden
- Schlafbedürfnis ([5]; Pat. 2.2, after 5 mg, before 11-12): 7-9 Stunden
- Bell-Score ([5]; Pat. 2.2, after 5 mg, before 40): 80
- Vigilanz ([5]; Pat. 2.3, after 5 mg): uneingeschränkte Vigilanz
- Schlafbedürfnis ([5]; Pat. 2.3, after 5 mg, before 12): 7,5 Stunden /24 h
- Bell-Score ([5]; Pat. 2.3, after 5 mg, before 40): 100
- Bell-Score in Bezug auf die muskulären Defizite ([5]; Pat. 2.5 (LEMS), 3 x 20 mg plus 5 mg if needed (60 to 70 mg per day)): ca. 20
- Fatigue [5, 8]: sistierte die Fatigue
- muskuläre Belastbarkeit [5, 8]: gebesserte muskuläre Belastbarkeit
- Bell-Score ([5]; Pat. 2.5 (LEMS), initial 3 x 5 mg, before 10): 80
- Schlafbedürfnis ([5]; Pat. 2.5 (LEMS), initial 3 x 5 mg, before 16-18): 8-9 Stunden / 24h
- Bell-Score ([5]; Patientin 2.4, after 5 mg, before 20, Post-Covid-Myokarditis): 50
- Bell-Score [6]: 90
- koindizierte Fatigue ([2]; LEMS-Patienten, stated as known): Besserung
